According to patent publication US20050176149A1, “Process for the reversible functional inactivation of the mismatch repair system” (priority 2002, published 2005):
Entries after “also recorded” stand apart in the source; their conditions may differ.

Legend:
[1] = tested on: intraspecies E. coli Hfr×E. coli F^− conjugational recombination; assay: intraspecies E. coli Hfr×E. coli F^− conjugational recombination (Thr^+ recombinants per Hfr donor); assay type: cell-based; conditions: mutS^+ (wildtype) or mutS^− background
Source text: (§1) FIG. 1: Influence of 2-aminopurine (2-AP) on the efficiency of intraspecies E. coli Hfr×E. coli F^− and interspecies S. typhimurium Hfr×E. coli F^− conjugational recombination. Recipient E. coli strains were either mutS^+ (A, C) or mutS^− (B, D). The recombination frequencies for the selected marker (Thr^+) are expressed per Hfr donor after subtracting unmated revertants. Each number represents the mean (± standard error) of at least three independent experiments.
The conjugation experiments have been performed under the previously described conditions (Rayssiguier et al., 1989). The overnight cultures of donor strains (2-4×10^9 cells/ml) comprising the DNA sequence to be introduced and recipient strains comprising the autologous DNA sequences were diluted 50-fold into fresh LB medium, with or without 2-aminopurine (Sigma), and grown with gentle shaking (about 150 rpm) in order to obtain 2-4×10^8 cells/ml. In order to obtain the required concentration of cells, about 3 hours of incubation is required. When cells were treated with 2-AP, the growth was slightly slower (the incubation was about 30 minutes longer) compared to the growth without 2-AP. The 2-AP treatment of the donor and recipient strains before mating is preferred as 2-AP must be incorporated in the DNA during replication in order to saturate mismatch repair. […] Recombinants were scored after incubation of 48 hours at 37° C.

MutL protein = biological target: T1, MutL protein (Escherichia coli, UniProt P23367); assay: identification of the mismatch-repair system component saturated or inhibited by 2-AP (complementation with mutS^+ or mutL^+ plasmids); assay type: cell-based, E. coli; conditions: 2-AP 300 mg/ml (so in the source); plasmids carrying mutS^+ or mutL^+
T1 construct: endogenous in cells; host or cells: E. coli K12 AB1157 derivatives (MX4, MX5); In MX5 (mutL218::Tn10), MutL comes from plasmid pMQ339 (mutL+)
T1 sequence (P23367 whole entry): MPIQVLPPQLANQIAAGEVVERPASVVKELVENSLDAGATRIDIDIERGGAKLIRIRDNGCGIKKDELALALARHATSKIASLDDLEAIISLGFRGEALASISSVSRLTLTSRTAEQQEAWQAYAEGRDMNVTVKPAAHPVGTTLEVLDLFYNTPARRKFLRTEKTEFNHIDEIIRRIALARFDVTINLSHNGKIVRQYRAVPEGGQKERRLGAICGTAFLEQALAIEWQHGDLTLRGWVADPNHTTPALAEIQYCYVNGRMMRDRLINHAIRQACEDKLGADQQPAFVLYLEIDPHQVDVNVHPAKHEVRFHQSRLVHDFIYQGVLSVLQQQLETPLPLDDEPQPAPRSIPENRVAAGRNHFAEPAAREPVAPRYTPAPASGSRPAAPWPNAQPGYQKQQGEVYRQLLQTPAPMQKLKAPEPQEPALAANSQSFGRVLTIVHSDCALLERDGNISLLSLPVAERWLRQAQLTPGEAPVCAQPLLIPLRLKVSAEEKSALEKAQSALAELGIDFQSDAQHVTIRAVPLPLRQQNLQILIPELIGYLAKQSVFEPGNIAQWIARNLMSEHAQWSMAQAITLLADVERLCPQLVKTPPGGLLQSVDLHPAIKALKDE
Description: FIG. 2: Identification of the mismatch-repair system component, which is saturated or inhibited with 2-aminopurine (2-AP) treatment. Recipient E. coli strains were either […] (A, B) or mutL^− (C, D). The mismatch repair deficiency was complemented with plasmids carrying mutS^+ (A, B) or mutL^+ genes (C, D). The dose of 2-AP used in these experiments was always 300 mg/ml. The recombination frequencies for the selected marker (Thr^+) are expressed per Hfr donor after subtracting unmated revertants. Each number represents the mean (± standard error) of at least three independent experiments.
Plasmids carrying mutS^+ or mutL^+ genes were indroduced by electrotransformation (using BIO RAD micro pulser apparatus) in MX4 and MX5 strains, respectively.
The conjugation experiments have been performed under the previously described conditions (Rayssiguier et al., 1989). The overnight cultures of donor strains (2-4×10^9 cells/ml) comprising the DNA sequence to be introduced and recipient strains comprising the autologous DNA sequences were diluted 50-fold into fresh LB medium, with or without 2-aminopurine (Sigma), and grown with gentle shaking (about 150 rpm) in order to obtain 2-4×10^8 cells/ml. In order to obtain the required concentration of cells, about 3 hours of incubation is required. […] Recombinants were scored after incubation of 48 hours at 37° C.

[2] = tested on: interspecies S. typhimurium Hfr×E. coli F^− conjugational recombination; assay: interspecies S. typhimurium Hfr×E. coli F^− conjugational recombination (Thr^+ recombinants per Hfr donor); assay type: cell-based
Source text: as §1
The conjugation experiments have been performed under the previously described conditions (Rayssiguier et al., 1989). The overnight cultures of donor strains (2-4×10^9 cells/ml) comprising the DNA sequence to be introduced and recipient strains comprising the autologous DNA sequences were diluted 50-fold into fresh LB medium, with or without 2-aminopurine (Sigma), and grown with gentle shaking (about 150 rpm) in order to obtain 2-4×10^8 cells/ml. In order to obtain the required concentration of cells, about 3 hours of incubation is required. When cells were treated with 2-AP, the growth was slightly slower (the incubation was about 30 minutes longer) compared to the growth without 2-AP. The 2-AP treatment of the donor and recipient strains before mating is preferred as 2-AP must be incorporated in the DNA during replication in order to saturate mismatch repair. The doses of 2-AP tested were: 25 μg/ml, 50 μg/ml, 75 μg/ml, 100 μg/ml, 300 μg/ml and 600 μg/ml. The effect of 2-AP treatment was already significant when 50 μg/ml of 2-AP was used. […] Mating mixtures were prepared by mixing together Hfr and F^− bacteria in a 1:1 ratio. This mixture was filtered through a sterile 0.45-μm-pore size nitrocellulose filter (2.5 cm diameter), using vacuum filtration equipment (MILLIPORE). The filters with mating mixtures i.e. mixtures with cells comprising autologous and introduced nucleotide sequences were incubated on fresh LB agar plate (with or without 2-aminopurine) prewarmed at 37° C. […] For this purpose, the M9 medium [supplemented with arginine, histidine, leucine, proline and tryptophane (100 μg/ml each), thiamine (30 μg/ml), glucose (0.4%), and nalidixic acid (40 μg/ml) to counter-select the Hfr donor cells] was used. Threonine was not added to the media in order to select Thr^+ recombinants. Recombinants were scored after incubation of 48 hours at 37° C.
The recombination between these two bacterial species, which have about 16% divergence in their genomic sequences, is very low (10^−8-10^−7; FIG. 1A) compared to intraspecies recombination (about 10^−1; FIG. 1C). Inactivation of the mutS or mutL gene in recipient cells according to the present invention using 2-AP increases about 10^3-10^4-fold the frequency of interspecies recombination (FIG. 1B, FIG. 2A and 2B).

[3] = tested on: donor and recipient strains; assay: growth of donor and recipient strains in LB medium with 2-AP; assay type: cell-based, E. coli; conditions: 37° C., compared to growth without 2-AP (about 3 hours)
Description: The conjugation experiments have been performed under the previously described conditions (Rayssiguier et al., 1989). The overnight cultures of donor strains (2-4×10^9 cells/ml) comprising the DNA sequence to be introduced and recipient strains comprising the autologous DNA sequences were diluted 50-fold into fresh LB medium, with or without 2-aminopurine (Sigma), and grown with gentle shaking (about 150 rpm) in order to obtain 2-4×10^8 cells/ml. In order to obtain the required concentration of cells, about 3 hours of incubation is required. When cells were treated with 2-AP, the growth was slightly slower (the incubation was about 30 minutes longer) compared to the growth without 2-AP. The 2-AP treatment of the donor and recipient strains before mating is preferred as 2-AP must be incorporated in the DNA during replication in order to saturate mismatch repair. The doses of 2-AP tested were: 25 μg/ml, 50 μg/ml, 75 μg/ml, 100 μg/ml, 300 μg/ml and 600 μg/ml. The effect of 2-AP treatment was already significant when 50 μg/ml of 2-AP was used. […] Mating mixtures were prepared by mixing together Hfr and F^− bacteria in a 1:1 ratio. This mixture was filtered through a sterile 0.45-μm-pore size nitrocellulose filter (2.5 cm diameter), using vacuum filtration equipment (MILLIPORE). […] Recombinants were scored after incubation of 48 hours at 37° C.

Nc1ncc2[nH]cnc2n1 [2-AP, 2-aminopurine]
effect of 2-AP on frequency of intraspecies recombination [1]: not considerably increased; also recorded: not modified | component of the MRS titrated or inactivated by the 2-AP treatment (MutL protein): MutL protein | 2-AP dose at which the effect on recombination was already significant ([2]; doses tested 25-600 μg/ml): 50 µg/mL | 2-AP dose of maximal effect on recombination efficiency ([2]; doses tested 25-600 μg/ml, further increases did not increase recombination efficiency further): 100 µg/mL | 2-AP effect on interspecies recombination in mutS^− recipient background ([2]; mutS^− recipient (FIG. 1B) compared with wildtype (FIG. 1A)): not as pronounced as in a wildtype background | 2-AP concentration range in which an increase of recombination frequency is seen ([2]; wild-type recipient cells, in particular at and above 75 μg/ml): 50 to 600 µg/mL | additional incubation time needed to reach 2-4×10^8 cells/ml (slower growth) with 2-AP [3]: about 30 minutes
